Data as given in ChEMBL document CHEMBL6087476, “Positive Charge-Concentrated Dimeric Lipopeptides with Enhanced Protease Resistance: A Potential Solution for Systemic Bacterial Infections” (J Med Chem, 2025).
≈ marks a conversion by molar mass, not a printed value. Calls of active or inactive are those of the source. The calls are words filed in the database; no cut-off is given here.

How the values were obtained:
[1] = Toxicity in ICR mouse assessed as humpbacking at 20 mg/kg, ip measured after 1 hr; assay type: organism-based; settings: in vivo
[2] = system: Escherichia coli; assay: Antibacterial activity against Escherichia coli ATCC 25922 injected intraperitoneally in ICR mouse assessed as reduction in symptoms by measuring thickened respiratory membrane in lung at 10 mg/kg, ip measured after 12 hrs by H and E staining based assay; assay type: functional, organism-based
[3] = system: HEK-293T; assay: Cytotoxicity against human HEK293T cells assessed as cell death measured after 18 to 24 hrs by MTT assay; assay type: functional; settings: time 18-24 hrs
[4] = system: Escherichia coli; assay: Bactericidal activity against Escherichia coli ATCC 25922 assessed as reduction in bacterial viability at 4 uM measured within 30 mins; assay type: functional; settings: 0.5 h
[5] = Toxicity in ICR mouse assessed as slight manifestation of stooping at 20 mg/kg, ip measured within 1 hr; assay type: organism-based; settings: in vivo
[6] = system: Salmonella typhimurium; assay: Antimicrobial activity against Salmonella typhimurium 14028 assessed as increase in absorbance incubated for 20 to 22 hrs; assay type: functional, Salmonella enterica subsp. enterica serovar Typhimurium; settings: Salmonella enterica, time 20-22 hrs
[7] = Stability of compound assessed as pepsin (unknown origin)-mediated compound structural integrity change at 8 mg/ml incubated for 1 to 8 hrs by 16.5% tricine-SDS-PAGE analysis; assay type: ADME; settings: human, time 1-8 hrs
[8] = system: Escherichia coli; assay: Reduction in intracellular ATP level in Escherichia coli ATCC 25922 at 2 uM measured after 1 hr incubation by Enhanced ATP assay kit; assay type: functional; parameters: scale not given: the % may be the effect or the level left
[9] = Toxicity in ICR mouse assessed as reduced mobility at 20 mg/kg, ip measured after 1 hr; assay type: organism-based; settings: in vivo
[10] = Toxicity in ICR mouse assessed as blood urea nitrogen (BUN) level in serum at 5 to 20 mg/kg, ip measured after 3 days; assay type: organism-based; settings: in vivo, 72 h, dose 5-20 mg/kg, time 3 day
[11] = system: Escherichia coli; assay: Antimicrobial activity against Escherichia coli ATCC 25922 assessed as increase in absorbance incubated for 4 hrs in presence of 12.5% serum; assay type: functional, organism-based
[12] = system: Escherichia coli; assay: Antibacterial activity against Escherichia coli ATCC 25922 injected intraperitoneally in ICR mouse assessed as reduction bacterial load in lung at 10 mg/kg, ip measured after 12 hrs by H and E staining based assay; assay type: functional, organism-based
[13] = system: Escherichia coli; assay: Antibacterial activity against Escherichia coli ATCC 25922 injected intraperitoneally in ICR mouse assessed as reduction in symptoms by measuring disorganized hepatic cords in liver at 10 mg/kg, ip measured after 12 hrs by H and E staining based assay; assay type: functional, organism-based
[14] = system: Escherichia coli; assay: Resistance fold, ratio of MIC for Escherichia coli ATCC 25922 measured after 30 day passage period to MIC for Escherichia coli ATCC 25922; assay type: functional
[15] = system: Escherichia coli; assay: Antimicrobial activity against Escherichia coli ATCC 25922 assessed as increase in absorbance incubated for 20 to 22 hrs in presence of K+ physiological salt; assay type: functional, organism-based; settings: time 20-22 hrs
[16] = system: RAW264.7; assay: Cytotoxicity against mouse RAW264.7 cells assessed as cell death measured after 18 to 24 hrs by MTT assay; assay type: functional; settings: time 18-24 hrs
[17] = Toxicity in ICR mouse assessed as body weight change at 5 to 20 mg/kg, ip measured after 3 days; assay type: organism-based; settings: in vivo, 72 h, dose 5-20 mg/kg, time 3 day
[18] = system: Escherichia coli; assay: Antibiofilm activity against Escherichia coli ATCC 25922 biofilm assessed as removal of matured biofilm at 16 uM; assay type: functional, organism-based
[19] = system: Staphylococcus aureus; assay: Antimicrobial activity against methicillin-resistant Staphylococcus aureus 43300 assessed as increase in absorbance incubated for 20 to 22 hrs; assay type: functional; settings: time 20-22 hrs
[20] = system: Escherichia coli; assay: Bactericidal activity against Escherichia coli ATCC 25922 assessed as reduction in bacterial viability at 4 uM measured within 2 hrs; assay type: functional, organism-based
[21] = system: Escherichia coli; assay: Antimicrobial activity against Escherichia coli ATCC 25922 assessed as increase in absorbance incubated for 20 to 22 hrs in presence of Fe3+ physiological salt; assay type: functional, organism-based; settings: time 20-22 hrs
[22] = Toxicity in ICR mouse assessed as liver weight change at 5 to 20 mg/kg, ip measured after 3 days; assay type: organism-based; settings: in vivo, 72 h, dose 5-20 mg/kg, time 3 day
[23] = system: Staphylococcus aureus; assay: Antimicrobial activity against Staphylococcus aureus 25923 assessed as increase in absorbance incubated for 20 to 22 hrs; assay type: functional; settings: time 20-22 hrs
[24] = Toxicity in ICR mouse assessed as kidney weight change at 5 to 20 mg/kg, ip measured after 3 days; assay type: organism-based; settings: in vivo, 72 h, dose 5-20 mg/kg, time 3 day
[25] = system: Escherichia coli; assay: Antimicrobial activity against Escherichia coli K99 assessed as increase in absorbance incubated for 20 to 22 hrs; assay type: functional; settings: time 20-22 hrs
[26] = system: Escherichia coli; assay: Inhibition of respiratory chain dehydrogenase (RCD) activity in Escherichia coli ATCC 25922 at 4 uM incubated for 90 mins by TTC assay
[27] = system: Mus musculus; assay: Anti-inflammatory activity against Escherichia coli ATCC 25922-induced peritonitis ICR mouse model assessed as decrease in IL-1 beta level in serum spleen at 10 mg/kg, ip measured after 12 hrs; assay type: functional, organism-based
[28] = Cytotoxicity against porcine IPEC-J2 cells assessed as cell death measured after 18 to 24 hrs by MTT assay; assay type: functional; settings: Sus scrofa, time 18-24 hrs
[29] = system: Escherichia coli; assay: Antimicrobial activity against Escherichia coli ATCC 25922 assessed as increase in absorbance incubated for 4 hrs in presence of 25% serum; assay type: functional, organism-based
[30] = Toxicity in ICR mouse assessed as hepatic cords morphology at 5 to 20 mg/kg, ip measured after 3 days by histopathological H and E staining based assay; assay type: organism-based; settings: in vivo, 72 h, dose 5-20 mg/kg, time 3 day
[31] = system: Mus musculus; assay: Anti-inflammatory activity against Escherichia coli ATCC 25922-induced peritonitis ICR mouse model assessed as decrease in TNF-alpha level in serum spleen at 10 mg/kg, ip measured after 12 hrs; assay type: functional, organism-based
[32] = system: Escherichia coli; assay: Antimicrobial activity against Escherichia coli ATCC 25922 assessed as increase in absorbance at 8 mg/ml incubated for 8 hrs in presence of chymotrypsin; assay type: functional, organism-based
[33] = system: Staphylococcus aureus; assay: Antimicrobial activity against Staphylococcus aureus 29213 assessed as increase in absorbance incubated for 20 to 22 hrs; assay type: functional; settings: time 20-22 hrs
[34] = system: Cell membrane; assay: Induction of depolarization of cytoplasmic membrane (CM) in Escherichia coli ATCC 25922 assessed as fluorescence changes at 1/2 to 3 times of MIC by fluorescent probe DiSC3-5 assay; assay type: subcellular; settings: time 1000-3000 sec
[35] = Toxicity in ICR mouse assessed as slight manifestation of stooping at 20 mg/kg, ip measured after 1 hr; assay type: organism-based; settings: in vivo
[36] = system: Salmonella typhimurium; assay: Antimicrobial activity against Salmonella typhimurium 7731 assessed as increase in absorbance incubated for 20 to 22 hrs; assay type: functional, Salmonella enterica subsp. enterica serovar Typhimurium; settings: Salmonella enterica, time 20-22 hrs
[37] = Hemolytic activity in healthy human RBC assessed as hemolysis incubated for 1 hr by microplate reader; assay type: toxicity, cell-based; settings: erythrocyte
[38] = system: Staphylococcus epidermidis; assay: Antimicrobial activity against Staphylococcus epidermidis 12228 assessed as increase in absorbance incubated for 20 to 22 hrs; assay type: functional; settings: time 20-22 hrs
[39] = Toxicity in ICR mouse assessed as humpbacking at 20 mg/kg, ip measured within 1 hr; assay type: organism-based; settings: in vivo
[40] = system: Escherichia coli; assay: Antimicrobial activity against Escherichia coli K88 assessed as increase in absorbance incubated for 20 to 22 hrs; assay type: functional; settings: time 20-22 hrs
[41] = system: Escherichia coli; assay: Antibacterial activity against Escherichia coli ATCC 25922 injected intraperitoneally in ICR mouse assessed as reduction bacterial load in liver at 10 mg/kg, ip measured after 12 hrs by H and E staining based assay; assay type: functional, organism-based

CCCCCCCCCC(=O)NCCCC[C@H](N)C(=O)NCC(=O)NCC(=O)NCC(=O)N[C@H](CCCNC(=N)N)C(=O)N[C@@H](CCCNC(=N)N)C(=O)N[C@@H](CCCNC(=N)N)C(=O)N1CCC[C@H]1C(=O)N[C@@H](CSSC[C@H](NC(=O)[C@@H]1CCCN1C(=O)[C@H](CCCNC(=N)N)NC(=O)[C@H](CCCNC(=N)N)NC(=O)[C@@H](CCCNC(=N)N)NC(=O)CNC(=O)CNC(=O)CNC(=O)[C@@H](N)CCCCNC(=O)CCCCCCCCC)C(=O)O)C(=O)O
Activity [1]: Non-toxic
Activity [2]: Active
IC10 [3]: 256 µM
Activity [4]: ~80%
Activity [5]: Toxic
MIC [6]: 4 µM (≈ 9.12 µg/mL)
Stability [7]: Stable
Activity [8]: ~40%
Activity [9]: Non-toxic
Activity [10]: Non-toxic
Activity [11]: Active
Activity [12]: Active
Activity [13]: Active
fold change (FC) [14]: <=2
Activity [15]: Active; C-C10)C-C Demonstrated Superior Physiological Salt Tolerance In Comparison To (N-C10)C-C
IC10 [16]: 256 µM
Activity [17]: Non-toxic
Activity [18]: Active
MIC [19]: 4 µM (≈ 9.12 µg/mL)
Activity [20]: inactive
Activity [21]: Active; C-C10)C-C Demonstrated Superior Physiological Salt Tolerance In Comparison To (N-C10)C-C
Activity [22]: Non-toxic
MIC [23]: 4 µM (≈ 9.12 µg/mL)
Activity [24]: Non-toxic
MIC [25]: 4 µM (≈ 9.12 µg/mL)
inhibition [26]: Active
Activity [27]: Active
IC10 [28]: 256 µM
Activity [29]: Active
Activity [30]: Non-toxic
Activity [31]: Active
Activity [32]: Active; Negligible Alteration In Mic Values Found
MIC [33]: 8 µM (≈ 18.2 µg/mL)
Activity [34]: Time-dependent-effect
Activity [35]: Non-toxic
MIC [36]: 4 µM (≈ 9.12 µg/mL)
HC10 [37]: 256 µM
MIC [38]: 8 µM (≈ 18.2 µg/mL)
Activity [39]: Toxic
MIC [40]: 2 µM (≈ 4.56 µg/mL)
Activity [41]: Active
